One series relates to Smn protein. The series is described as follows: Smn protein assay in cultured cells (SMN HTRF). It is filed as cell-based, human. The settings on record: 48 hours; for maximum fold (Fold) increase of Smn protein: SMA patient fibroblast cells, 7-point concentration data, fold increase relative to vehicle control (SMN HTRF); for EC1.5x (concentration giving 1.5-fold Smn protein increase): SMA Type 1 patient fibroblast cells (GM03813), 7-point concentration curve, SMN HTRF, concentration producing 1.5 times Smn protein vs DMSO vehicle control, read-out: EC1.5x for Smn protein expression. An outline of the steps: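 Lysates in RIPA with protease inhibitors are incubated overnight at room temperature with HTRF anti-SMN antibodies. EC1.5x is derived from fold increase in ΔF over vehicle.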

Series [1] deals with SMN2 minigene (full length SMN2 minigene mRNA containing SMN2 exon 7). The series is described as follows: SMN2 minigene mRNA splicing RT-qPCR assay in cultured cells. Format: cell-based, human. The settings on record: Homo sapiens, HEK293-H, read-out: EC1.5x for production of full length SMN2 mRNA. An outline of the steps:
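Read-out: full-length (exon 7-included) SMN2 minigene mRNA by multiplex RT-qPCR with GAPDH, efficiency-corrected (1+E)^−Ct, GAPDH-normalized and divided by vehicle. Stably transfected HEK293H cells, 24 h compound exposure, duplicates per concentration. Value is EC1.5x, reported as star ranges.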

Where [2] appears, read: HEK293H cells stably transfected with SMN2-A minigene, 24 hours, 7-point concentration curve, 1.5-fold relative to vehicle-treated cells.

Each structure is given as a SMILES string. Like-named read-outs stand apart in the source and are kept apart here. Some results are limits rather than exact numbers.

`C[C@@H]1CN(c2ccc3cc(-c4cn(-c5ccccc5)cn4)c(=O)oc3c2)C[C@H](C)N1` [Cpd 452, 7-[(3R,5S)-3,5-dimethylpiperazin-1-yl]-3-(1-phenyl-1H-imidazol-4-yl)-2H-chromen-2-one] gave a melting point of 260 to 264 °C. In addition, the “maximum fold (Fold) increase of Smn protein” value (from here on “maximum fold (Fold) increase”) in the series with Smn protein is “* (maximum fold increase of ≤1.2)”. Further, the EC (1.5-fold) in series [1] (setting [2]) fell in the range of 3 to 30 µM.

As to `Cc1ccc2nc(-c3cc4ccc(N5CC6CCCNC6C5)cc4oc3=O)cn2c1` (centres unmarked) [Compound 255, 3-(6-methylimidazo[1,2-a]pyridin-2-yl)-7-(octahydro-6H-pyrrolo[3,4-b]pyridin-6-yl)-2H-chromen-2-one], the melting point lay within 220 to 230 °C. Further, in the series on Smn protein, the “maximum fold (Fold) increase” value is recorded as “* (maximum fold increase of ≤1.2)”. Besides, in series [1] (setting [2]), the EC (1.5-fold) lay in the range of 3 to 30 µM.

`COc1ccc(-c2cc3ccc(N4C[C@@H](C)N[C@@H](C)C4)cc3oc2=O)cc1OC` [Compound 384, 3-(3,4-dimethoxyphenyl)-7-[(3R,5S)-3,5-dimethylpiperazin-1-yl]-2H-chromen-2-one]: the melting point was 130 to 132 °C. Further, the “maximum fold (Fold) increase” value in the series on Smn protein is recorded as “* (maximum fold increase of ≤1.2)”. Moreover, the EC (1.5-fold) in series [1] (setting [2]) lay in the range of 3 to 30 µM.

Turning to `O=c1oc2cc(N3CCCNCC3)ccc2cc1-c1cn2ccsc2n1` [Compound 206, 7-(1,4-diazepan-1-yl)-3-(imidazo[2,1-b][1,3]thiazol-6-yl)-2H-chromen-2-one], the melting point was 225 to 230 °C. In addition, in the series on Smn protein, the “maximum fold (Fold) increase” value was “** (fold increase between >1.2 and ≤1.35)”. The EC (1.5-fold) in series [1] (setting [2]) fell in the range of 0.3 to 1 µM.

In turn, `C[C@@H]1CN(c2ccc3cc(-c4ccc5c(c4)OCCO5)c(=O)oc3c2)C[C@H](C)N1` [Compound 514, 3-(2,3-dihydro-1,4-benzodioxin-6-yl)-7-[(3R,5S)-3,5-dimethylpiperazin-1-yl]-2H-chromen-2-one] displayed a melting point of 138 to 140 °C. For the same molecule, the “maximum fold (Fold) increase” value with Smn protein is reported as “* (maximum fold increase of ≤1.2)”. Also, the EC (1.5-fold) in series [1] (setting [2]) fell in the range of 3 to 30 µM.

In turn, `Cc1cc(Cl)cn2cc(-c3cc4ccc(N5CCNCC5)cc4oc3=O)nc12` [Compound 263, 3-(6-chloro-8-methylimidazo[1,2-a]pyridin-2-yl)-7-(piperazin-1-yl)-2H-chromen-2-one] yielded a melting point of 224 to 233 °C. Moreover, in the series on Smn protein, the “maximum fold (Fold) increase” value is given as “* (maximum fold increase of ≤1.2)”. Further, the EC (1.5-fold) in series [1] (setting [2]) lay in the range of 3 to 30 µM.

The molecule `Cc1ccn2cc(-c3cc4ccc(N5CCN(C)CC5)cc4oc3=O)nc2c1` [Compound 134, 3-(7-methylimidazo[1,2-a]pyridin-2-yl)-7-(4-methylpiperazin-1-yl)-2H-chromen-2-one] yielded a melting point of 252 to 262 °C. In the series with Smn protein, the EC1.5x (concentration giving 1.5-fold Smn protein increase) is 1000 to 3000 nM; the “maximum fold (Fold) increase” value was “*** (fold increase between >1.35 and ≤1.5)”. Further, the EC (1.5-fold) in series [1] (setting [2]) was 0.3 to 1 µM.

With `Cc1ccn2cc(-c3cc4ccc(N5C[C@H]6CC[C@@H](C5)N6C)cc4oc3=O)nc2c1` [Compound 535, 7-[(1R,5S)-8-methyl-3,8-diazabicyclo[3.2.1]oct-3-yl]-3-(7-methylimidazo[1,2-a]pyridin-2-yl)-2H-chromen-2-one], the melting point fell in the range of 224 to 229 °C. Moreover, the “maximum fold (Fold) increase” value in the series with Smn protein is given as “* (maximum fold increase of ≤1.2)”. The EC (1.5-fold) in series [1] (24 h) lay in the range of 1 to 3 µM.

Molecule `C[C@H]1CN(c2ccc3cc(-c4cn5cccnc5n4)c(=O)oc3c2)CCN1` [Compound 170, 3-(imidazo[1,2-a]pyrimidin-2-yl)-7-[(3S)-3-methylpiperazin-1-yl]-2H-chromen-2-one] came in with a melting point of 282 to 285 °C. Besides, in the series on Smn protein, the “maximum fold (Fold) increase” value was “** (fold increase between >1.2 and ≤1.35)”. Further, the EC (1.5-fold) in series [1] (setting [2]) is 0.3 to 1 µM.

The molecule `O=c1oc2cc(N3C[C@@H]4C[C@H]3CN4)ccc2cc1-c1nc(C(F)(F)F)cs1` [Compound 266, 7-[(1S,4S)-2,5-diazabicyclo[2.2.1]hept-2-yl]-3-[4-(trifluoromethyl)-1,3-thiazol-2-yl]-2H-chromen-2-one] yielded a melting point of 211 to 220 °C. The “maximum fold (Fold) increase” value with Smn protein is recorded as “* (maximum fold increase of ≤1.2)”. The EC (1.5-fold) in series [1] (setting [2]) fell in the range of 1 to 3 µM.

`Cc1cccn2cc(-c3cc4ccc(N5CCCN(C)CC5)cc4oc3=O)nc12` [Compound 246, 7-(4-methyl-1,4-diazepan-1-yl)-3-(8-methylimidazo[1,2-a]pyridin-2-yl)-2H-chromen-2-one] gave a melting point of 138 to 140 °C. Further, in the series with Smn protein, the EC1.5x (concentration giving 1.5-fold Smn protein increase) is 1000 to 3000 nM; the “maximum fold (Fold) increase” value is “*** (fold increase between >1.35 and ≤1.5)”. Besides, in series [1] (setting [2]), the EC (1.5-fold) lay within 0.1 to 0.3 µM.

`Cc1cn2cc(-c3cc4ccc(N5C[C@@H](C)N[C@@H](C)C5)cc4oc3=O)nc2s1` [Compound 152, 7-[(3R,5S)-3,5-dimethylpiperazin-1-yl]-3-(2-methylimidazo[2,1-b][1,3]thiazol-6-yl)-2H-chromen-2-one] came in with a melting point of 210 to 212 °C. In the series with Smn protein, the EC1.5x (concentration giving 1.5-fold Smn protein increase) is 1000 to 3000 nM; the “maximum fold (Fold) increase” value was “*** (fold increase between >1.35 and ≤1.5)”. Besides, the EC (1.5-fold) in series [1] (setting [2]) was under 0.1 µM.

`CN1CCN(c2cc(F)c3cc(-c4cn5ccccc5n4)c(=O)oc3c2)CC1` [Compound 422, 5-fluoro-3-(imidazo[1,2-a]pyridin-2-yl)-7-(4-methylpiperazin-1-yl)-2H-chromen-2-one] registered a melting point of 263 to 269 °C. For the same molecule, the “maximum fold (Fold) increase” value with Smn protein is “** (fold increase between >1.2 and ≤1.35)”. Moreover, in series [1] (setting [2]), the EC (1.5-fold) was in the range of 0.3 to 1 µM.

Take `CCN(CC)CCc1ccc2cc(-c3cn4cc(C)nc(C)c4n3)c(=O)oc2c1` [Compound 968, 7-[2-(diethylamino)ethyl]-3-(6,8-dimethylimidazo[1,2-a]pyrazin-2-yl)-2H-chromen-2-one]: the melting point was in the range of 190 to 193 °C. In the series with Smn protein, the EC1.5x (concentration giving 1.5-fold Smn protein increase) is under 300 nM and the “maximum fold (Fold) increase” value is “***** (fold increase >1.65)”. Further, the EC (1.5-fold) in series [1] (setting [2]) is under 0.1 µM.

`Cc1cn2cc(-c3cc4ccc(N5CCN(C6COC6)CC5)cc4oc3=O)nc2cn1` [Compound 839, 3-(6-methylimidazo[1,2-a]pyrazin-2-yl)-7-[4-(oxetan-3-yl)piperazin-1-yl]-2H-chromen-2-one] returned a melting point of 273 to 276 °C. Also, in the series on Smn protein, the EC1.5x (concentration giving 1.5-fold Smn protein increase) is 300 to 1000 nM; the “maximum fold (Fold) increase” value was “**** (fold increase between >1.5 and ≤1.65)”. Further, the EC (1.5-fold) in series [1] (setting [2]) was in the range of 0.1 to 0.3 µM.

For the molecule `Cc1cc(F)c2nc(-c3cc4ccc(N5CCCN(C)CC5)cc4oc3=O)cn2c1` [Compound 355, 3-(8-fluoro-6-methylimidazo[1,2-a]pyridin-2-yl)-7-(4-methyl-1,4-diazepan-1-yl)-2H-chromen-2-one], the melting point lay in the range of 233 to 240 °C. In the series on Smn protein, the EC1.5x (concentration giving 1.5-fold Smn protein increase) fell in the range of 300 to 1000 nM; the “maximum fold (Fold) increase” value was “**** (fold increase between >1.5 and ≤1.65)”. The EC (1.5-fold) in series [1] (setting [2]) is under 0.1 µM.

`O=c1oc2cc(OC3CCNCC3)ccc2cc1-c1nc2ccccc2o1` [Cpd 20, 3-(1,3-benzoxazol-2-yl)-7-(piperidin-4-yloxy)-2H-chromen-2-one] displayed a melting point of 198 to 201 °C. In addition, the “maximum fold (Fold) increase” value in the series with Smn protein was “* (maximum fold increase of ≤1.2)”. The EC (1.5-fold) in series [1] (setting [2]) is 3 to 30 µM.

For `COc1ccn2cc(-c3cc4ccc(N5CCN[C@@H](C)C5)cc4oc3=O)nc2c1` [Compound 434, 3-(7-methoxyimidazo[1,2-a]pyridin-2-yl)-7-[(3S)-3-methylpiperazin-1-yl]-2H-chromen-2-one], the melting point was in the range of 250 to 256 °C. For the same molecule, the “maximum fold (Fold) increase” value in the series on Smn protein is “** (fold increase between >1.2 and ≤1.35)”. Besides, the EC (1.5-fold) in series [1] (setting [2]) is 1 to 3 µM.

In turn, `Cc1ccc2cc(-c3cc4ccc(N5C[C@@H](C)N[C@@H](C)C5)cc4oc3=O)cn2n1` [Compound 639, 7-[(3R,5S)-3,5-dimethylpiperazin-1-yl]-3-(2-methylpyrrolo[1,2-b]pyridazin-6-yl)-2H-chromen-2-one] displayed a melting point of 105 to 108 °C. For the same molecule, in the series with Smn protein, the “maximum fold (Fold) increase” value is on record as “* (maximum fold increase of ≤1.2)”. Also, in series [1] (setting [2]), the EC (1.5-fold) was under 0.1 µM.

For the molecule `CCN(C)CCOc1ccc2cc(-c3cn4cc(C)nc(C)c4n3)c(=O)oc2c1` [Compound 937, 3-(6,8-dimethylimidazo[1,2-a]pyrazin-2-yl)-7-{2-[ethyl(methyl)amino]ethoxy}-2H-chromen-2-one], the melting point is 190 to 196 °C. Besides, in the series with Smn protein, the EC1.5x (concentration giving 1.5-fold Smn protein increase) is under 300 nM and the “maximum fold (Fold) increase” value is reported as “***** (fold increase >1.65)”. For the same molecule, the EC (1.5-fold) in series [1] (setting [2]) is under 0.1 µM.

Take `COc1ccc(-c2cc3c(F)cc(N4CCNCC4)cc3oc2=O)cc1OC` [Compound 404, 3-(3,4-dimethoxyphenyl)-5-fluoro-7-(piperazin-1-yl)-2H-chromen-2-one]: the melting point is 240 °C (dec.). In addition, in the series with Smn protein, the EC1.5x (concentration giving 1.5-fold Smn protein increase) lay in the range of 1000 to 3000 nM; the “maximum fold (Fold) increase” value was “**** (fold increase between >1.5 and ≤1.65)”. In addition, the EC (1.5-fold) in series [1] (setting [2]) is 0.3 to 1 µM.
